What was measured:
Type in all cases: in vivo
[1] = system: Wheat plants of the wheat varieties JB Asano and Apache; assay: Male sterility after a single root application (watering) of Clofencet to potted wheat plants, seed set of bagged ears (Example 1); conditions: for Average sterility relative to control: 1 root treatment, Zadok stage 31
Description: Wheat plants of the wheat varieties JB Asano and Apache were grown in the greenhouse in standard planting pots, bottom perforated, edge length 12 cm, height 13 cm, with one plant per pot. Twelve pots were placed into a plastic tray, bottom non-perforated with fleece inlay (e.g. available at Hermann Meyer KG unter article no. 44 54 11). Standard greenhouse growing substrate soil (bedding substrate 1 of Klasmann-Deilmann GmbH) was filled into the pot ca. 2 cm below edge. Plants were grown under standard growing conditions with respect to fertilizer, watering, disease and light management. Each plant was reduced to 4 tillers. The necessary active amount of Clofencet per plant was calculated according to the standard foliar spray application protocol of 5.42 kg per hectare assuming 400 ears per square meter taking the higher tiller number of potted plants into account (average number of ears per plant in the field is typically 1.15 but it was 4 in our potted plants, so the dose rate for root application per plant, i.e. per pot, was adjusted upward). At Zadoks growth stage 31 the plants were watered with 0.0 mg (control), 10.84 mg, 16.26 mg and 21.68 mg, respectively, of Clofencet in 200 ml tap water per pot. Each treatment was repeated on 12 plants, whereas the highest concentration was repeated on 24 plants. Before flowering time (Zadoks stage 57 of control group) ears were bagged to avoid unwanted cross-pollination. Bags were removed at beginning of grain filling (Zadoks stage 75 and higher), seed set was determined at kernel ripeness of the control group. When ears carried mature seeds, the ears were threshed with a hand-threshing device (Baumann Dreschhexe #4.701.200) and the kernels per plant were counted. A wheat ear is called completely sterile (=100% sterility) when no kernel developed on a bagged ear. The average number of grains per plant of the control plants was set to 0% sterility.

[2] = system: Wheat plants of the wheat varieties JB Asano and Apache; assay: Female fertility: seed set of Clofencet-treated male sterile plants after pollination with pollen from an untreated control plant (Example 3); conditions: for Average seed set of Clofencet treated plants after pollination with wheat pollen (rel. to control): 1 root treatment, Zadok stage 31
Excerpt: Male sterile plants generated by Clofencet treatment as described in Example 1 were used. Before single bagging the 4 ears of each plant at Zadoks stages 55-59, flowers were clipped to facilitate pollination. At flowering time (spikelets wide open) three male-sterile ears (no pollen in the transparent bags) were pollinated with pollen from an untreated control plant of the same wheat variety. One sterile ear was not pollinated to cross check the efficacy of the Clofencet treatment. Bags were removed at beginning of grain filling (Zadoks stage 75 and higher), seed set was determined at kernel maturity. If ears had set seed, the ears were threshed with a hand-threshing device (Baumann Dreschhexe #4.701.200) and the kernels per plant were counted. The average number of grains per plant of the control plants was set to 100% seed set.

[3] = system: Wheat plants of the wheat varieties JB Asano and KWS Target; assay: Male sterility after weekly root application (watering) of WL84811 to potted wheat plants, seed set of bagged ears (Example 2); conditions: for Average sterility relative to control after CHA: 1.0 mg/plant WL84811 in 100 ml water per treatment, 11 weekly root treatments (total 11.0 mg/plant), Zadok stage 31 to 65
Description: Wheat plants of the wheat varieties JB Asano and KWS Target were grown in the greenhouse in standard planting pots, bottom perforated, edge length 12 cm, height 13 cm, with one plant per pot. Twelve pots were placed into a plastic tray, bottom non-perforated with fleece inlay. Sandy loam from the field was filled into the pots ca. 2 cm below edge. Plants were grown under standard growing conditions with respect to fertilizer, watering, disease and light management. Each plant per pot was reduced to 4 tillers. The treatment was watering each pot with 0.0 mg (control) or 1.0 mg WL84811 in 100 ml tap water per pot. Each treatment was repeated on 2 plants per variety, watering with the treatment was done once a week for 11 weeks starting at Zadoks growth stage 31 until growth stage 65 of the control group. Ears were bagged to avoid unwanted cross-pollination. Bags were removed at beginning of grain filling (Zadoks stage 75 and higher), seed set was determined at kernel maturity of the control group. When ears had set seed, the ears were threshed by hand and the kernels per plant were counted. A wheat ear is called completely sterile (=100% sterility) when no kernel was developed on a bagged ear. The average number of grains per plant of the control plants was set to 0% sterility.

[4] = variety Apache, 10.84 mg/plant Clofencet in 200 ml water
[5] = variety Apache, 16.26 mg/plant Clofencet in 200 ml water
[6] = variety Apache, 21.68 mg/plant Clofencet in 200 ml water
[7] = variety JB Asano, 10.84 mg/plant Clofencet in 200 ml water
[8] = variety JB Asano, 16.26 mg/plant Clofencet in 200 ml water
[9] = variety JB Asano, 21.68 mg/plant Clofencet in 200 ml water

## CCc1c(C(=O)O)c(=O)cnn1-c1ccc(Cl)cc1 [Clofencet, 2-(4-chlorophenyl)-3-ethyl-2,5-dihydro-5-oxopyridazine-4-carboxylic acid]
[1]; doses of active substance higher than 21.68 mg per plant
  further effect on male sterility at higher doses (data not shown): do not have any further positive effect
[1]; single root application dose of 10.84 mg per plant with four tillers at growth stage 31
  male sterility: satisfying amount of average male sterility
[1]; single root application of 16.26 mg per plant at growth stage 31
  male sterility: ~100%
[1]; [4]
  Average sterility relative to control: 91.88%
[1]; [5]
  Average sterility relative to control: 98.69%
[1]; [6]
  Average sterility relative to control: 99.64%
[1]; [7]
  Average sterility relative to control: 94.72%
[1]; [8]
  Average sterility relative to control: 99.96%
[1]; [9]
  Average sterility relative to control: 98.65%
[1]; watered once with an active dose of 16.26 mg or more in Zadoks stage 31
  seed set of bagged plants: Almost no plants
[2]; root treatment once, pollinated with pollen of untreated control plants
  female fertility of the treated plants: does not harm the female fertility
[2]; variety Apache
  seed set compared to the control with 100% seed set: even seems to enhance seed set
[2]; [4]
  Average seed set of Clofencet treated plants after pollination with wheat pollen (rel. to control): 101%
[2]; [5]
  Average seed set of Clofencet treated plants after pollination with wheat pollen (rel. to control): 115%
[2]; [6]
  Average seed set of Clofencet treated plants after pollination with wheat pollen (rel. to control): 107%
[2]; [7]
  Average seed set of Clofencet treated plants after pollination with wheat pollen (rel. to control): 98%
[2]; [8]
  Average seed set of Clofencet treated plants after pollination with wheat pollen (rel. to control): 94%
[2]; [9]
  Average seed set of Clofencet treated plants after pollination with wheat pollen (rel. to control): 75%

## O=C(O)C1CNC1 [WL84811, azetidine-3-carboxylic acid]
[3]; regular weekly watering with 1.0 mg, root treatment
  generation of male sterility: very effective to generate male sterility
[3]; variety JB Asano
  Average sterility relative to control after CHA: 100%
[3]; variety KWS Target
  Average sterility relative to control after CHA: 100%
[3]; weekly 1.0 mg root treatment, bagged before flowering
  seed set of treated plants bagged before flowering: No plant

From patent publication US20200221654A9, “APPLICATIONS OF ROOT-ADMINISTERED CHEMICAL HYBRIDIZING AGENTS IN PLANT BREEDING” (BAYER CROPSCIENCE AKTIENGESELLSCHAFT, priority 2016, published 2020)
